pIC50, pKi: −log10 of the molar value. The source made the active and inactive calls. The calls are words filed in the database; no cut-off is given here.
How the values were obtained:
[1] = target: T1, Fatty-acid amide hydrolase 1 (Mus musculus, UniProt O08914); assay: Inhibition of FAAH in mouse brain homogenate using [3Hethanolamine]AEA as substrate incubated for 20 mins prior to substrate addition measured after 15 mins by beta counting analysis; format: tissue-based
T1 sequence (O08914 whole entry): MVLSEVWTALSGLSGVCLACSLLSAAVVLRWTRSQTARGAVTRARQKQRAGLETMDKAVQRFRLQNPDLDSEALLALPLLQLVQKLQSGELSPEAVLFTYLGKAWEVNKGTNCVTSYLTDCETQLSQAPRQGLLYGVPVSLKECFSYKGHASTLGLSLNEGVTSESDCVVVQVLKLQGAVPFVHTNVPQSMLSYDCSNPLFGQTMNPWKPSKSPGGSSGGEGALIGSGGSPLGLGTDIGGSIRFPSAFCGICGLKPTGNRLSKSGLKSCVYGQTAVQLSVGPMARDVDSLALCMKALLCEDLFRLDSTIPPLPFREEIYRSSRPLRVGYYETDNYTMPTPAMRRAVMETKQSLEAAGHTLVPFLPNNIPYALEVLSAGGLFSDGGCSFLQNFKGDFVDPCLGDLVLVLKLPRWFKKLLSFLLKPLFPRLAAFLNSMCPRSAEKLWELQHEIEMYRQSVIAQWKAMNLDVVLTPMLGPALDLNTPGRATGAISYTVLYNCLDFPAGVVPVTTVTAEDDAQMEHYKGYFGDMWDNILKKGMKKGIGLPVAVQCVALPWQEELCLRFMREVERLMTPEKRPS

[2] = target: T2, Fatty-acid amide hydrolase 1 (Homo sapiens, UniProt O00519); assay: Inhibition of human FAAH using [3Hethanolamine]AEA as substrate incubated for 20 mins prior to substrate addition measured after 15 mins by beta counting analysis
T2 sequence (O00519 whole entry): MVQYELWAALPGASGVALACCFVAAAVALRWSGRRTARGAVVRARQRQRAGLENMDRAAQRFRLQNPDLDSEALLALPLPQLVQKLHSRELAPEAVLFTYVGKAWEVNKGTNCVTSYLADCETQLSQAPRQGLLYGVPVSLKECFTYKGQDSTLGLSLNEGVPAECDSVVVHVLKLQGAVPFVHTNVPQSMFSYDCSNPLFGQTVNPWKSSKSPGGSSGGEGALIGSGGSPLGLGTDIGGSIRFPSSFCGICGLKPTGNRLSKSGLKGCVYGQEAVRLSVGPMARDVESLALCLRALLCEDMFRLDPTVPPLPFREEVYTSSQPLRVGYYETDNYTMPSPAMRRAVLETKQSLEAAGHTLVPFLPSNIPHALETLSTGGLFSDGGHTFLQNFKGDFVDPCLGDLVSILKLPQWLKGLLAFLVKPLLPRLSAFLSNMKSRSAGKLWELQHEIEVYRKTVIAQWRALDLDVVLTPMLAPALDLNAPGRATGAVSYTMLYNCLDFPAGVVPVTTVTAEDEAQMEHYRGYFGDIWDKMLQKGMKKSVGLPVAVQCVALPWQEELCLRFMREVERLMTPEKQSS

[3] = target: Fatty-acid amide hydrolase 1 (Mus musculus) (UniProt O08914); assay: Reversible noncompetitive inhibition of FAAH in mouse brain homogenate using [3Hethanolamine]AEA as substrate incubated for 20 mins prior to dialysis for 18 hrs followed by substrate addition measured after 15 mins; format: tissue-based

Question: `CN1CCN(c2cccc(OC(=O)NCCCCCCc3ccccc3)c2)CC1` was tested. Which pKi [1] did it give?
Answer: Its pKi is 6.62.

Question: How did the pKi [1] turn out when `CCCCOc1ccc(NC(=O)Oc2cccc(N3CCNCC3)c2)cc1` was run?
Answer: Its pKi is less than 6.30.

Question: How did the pKi [1] turn out when `Fc1ccc(OCCCCOc2cccc(N3CCNCC3)c2)cc1` was run?
Answer: The pKi was less than 6.30.

Question: With `O=C(NCCCCCCc1ccccc1)Oc1cccc(N2CCNCC2)c1` as the compound, how does the pIC50 [2] read?
Answer: The pIC50 was 7.36.

Question: What about the pKi [2] of the same compound?
Answer: The pKi was 7.59.

Question: What about the pKi [1] of the same compound?
Answer: The pKi was 7.89.

Question: And the inhibition [3]?
Answer: The inhibition was “Active”.

Question: How did the pKi [1] turn out when `C/C(=N\OC(=O)N1CCCCC1)c1cccc(N2CCN(C)CC2)c1` was run?
Answer: The pKi was less than 6.30.

Source: ChEMBL document CHEMBL2321687, “Identification of a novel arylpiperazine scaffold for fatty acid amide hydrolase inhibition with improved drug disposition properties” (Bioorg Med Chem Lett, 2013)
